Data from patent US20170027896A1, “METHODS AND COMPOSITIONS FOR THE TREATMENT OF VASCULAR MALFORMATION” (IFOM - FONDAZIONE ISTITUTO FIRC DI ONCOLOGIA MOLECOLARE, priority 2014, published 2017).
“Also recorded” adds a separate entry of the source. Like-named read-outs stand apart in the source and are kept apart here.

How the values were obtained:
[1] = tested on: cavernoma lesions in the brain of CCM1-ECKO mice; experiment: Cavernoma lesions in the brain of CCM1-ECKO mice; format: in vivo, mouse
Source text: (§1) CCM1-ECKO and CCM2-ECKO have been obtained from CCM1-flox/flox and CCM2-flox/flox mice as described in details above for CCM3-ECKO mice, see also Maddaluno et al, 2013 and Boulday et al, 2011.

[2] = tested on: b-catenin transcription activity in brain endothelial cells of CCM3-ECKO mice; experiment: Immunostaining of brain sections of CCM3-ECKO mice (b-gal reporter, progenitor/EndMT markers, VE-cadherin); format: in vivo, mouse; conditions: CCM3-ECKO pups, dpn 9
Source text: (§2) The CCM3-flox/flox mice were generated at TaconicArtemis (Koeln, Germany). Two P-lox sequences were inserted that flank exons 4 and 5 of the murine CCM3 gene, to produce a loss-of-function mutation after excision by Ore recombinase. These CCM3-flox/flox mice were bred with Cdh5(PAC)-CreERT2 mice (Wang et al, 2010) for tamoxifen-inducible endothelial-cell-specific expression of Ore-recombinase and CCM3 gene recombination. The CCM3-flox/flox-Cdh5(PAC)-CreERT2 mice were further bred with BAT-gal mice (Maretto et al, 2003) to monitor the activation of b-catenin transcription signaling, and with Rosa 26-Enhanced […] Fluorescent Protein (EYFP) (Rosa26EYFP) mice (Srinivas et al, 2001) to monitor the expression of Ore-recombinase through the expression of EYFP. Tamoxifen (Sigma) was dissolved in corn oil and 10% ethanol (at 10 mg/ml), and then diluted 1:5 in corn oil before single intragastric administration to dpn 1-2 pups (35 mg/kg body weight), as described in^14. The control (wild-type) mice included CCM3-flox/flox-Cdh5(PAC)-CreERT2-BAT-gal mice treated with the vehicle used to dissolve the tamoxifen (corn oil plus 2% ethanol), and CCM3^+/+-Cdh5(PAC)-CreERT2-BAT-gal mice treated with tamoxifen.
(§3) Brains and eyes from mice pups were fixed in 3% paraformaldehyde immediately after dissection, and this fixing was continued overnight at 4° C. The retinas were dissected from the eyes just before staining as the whole mount. Fixed brains were embedded in 4% low-melting-point agarose and sectioned along the sagittal axis ([…]) using a vibratome (1000 Plus, The Vibratome Company, St. Louis, Mo., US).
Brain sections and retinas were stained as floating samples in 12-well and 96-well plates, respectively. They were blocked overnight at 4° C. in 1% fish-skin gelatin with 0.5% Triton X100 and 5% donkey serum in phosphate-buffered saline (PBS) containing 0.01% thimerosal. The samples were incubated overnight at 4° C. with the primary antibodies diluted in 1% fish-skin gelatin with 0.25% Triton X100 in PBS containing 0.01% thimerosal. Following washing with 0.1% Triton X100 in PBS, the secondary antibodies were added for 4 h at room temperature in 1% fish-skin gelatin with 0.25% Triton X100 in PBS containing 0.01% thimerosal. The incubation with DAPI was in PBS for 4 h, which was followed by several washes in PBS, post-fixating with 3% paraformaldehyde for 5 min at room temperature, and further washes in PBS. The brain sections were mounted in Vectashield with DAPI, and the coverslips fixed with nail varnish; the retinas were mounted in Prolong gold with DAPI.
(§4) The following antibodies were used: anti-Pecam (hamster; MAB1398Z, Millipore); anti-b-galactosidase (chicken; ab9361, Abcam); anti-VE-cadherin (rat monoclonal; 550548, BD Biosciences); anti-VE-cadherin (goat; sc-6458, Santa Cruz); anti-active-b-catenin (mouse monoclonal clone 8E7) dephosphorylated on Ser37 and Thr41, Millipore); anti-total-b-catenin (mouse monoclonal; Cell Signaling); anti-S100a4 (rabbit; 07-2274, Millipore); anti-Klf4 (goat; AF3158, R&D); anti-CD44 (rat; 553131, BD Biosciences); anti-ID1 (rabbit; sc-488, Santa Cruz); anti-aSMA (mouse monoclonal; F3777, Sigma); anti-GFP (rabbit; A-6455, Invitrogen); anti-podocalyxin (goat; AF1556, R&D); anti-phospho-histone H3 (rabbit; ab51776, Millipore); anti-CCM3 (rabbit; Eurogentec); anti-p-Smad1 (rabbit; 9516, Cell Signaling); anti-endomucin (rabbit; sc-65495, Santa Cruz); anti-α-tubulin (mouse monoclonal; T9026, Sigma).

[3] = tested on: CCM3-knockout endothelial cell line; experiment: rtPCR of b-catenin target gene and progenitor/EndMT markers in CCM3-knockout endothelial cell line; format: cell-based, mouse; conditions: 48 h; 135 mM sulindac sulfide, 125 mM sulindac sulfone, 200 mM silibinin, 250 mM salinomycin
Procedure: (§5) In some experiments, endothelial cell lines from the lungs of CCM3-flox/flox mice (8-10 weeks old) were immortalized in culture through retroviral expression of polyoma middle T gene^60. […] These cells were then maintained in culture for up to 25 passages without detectable changes in the effects of this CCM3 ablation.
(§6) Drugs were added to confluent cells for 48 h before the indicated assays. The final concentrations used were: […] (all from Sigma-Aldrich). As all of these were dissolved in DMSO, control treatment (vehicle) was 0.1% DMSO final concentration, as for drug treatment.
(§7) RNA extraction was performed with RNeasy kits (74106; […]). The RNA (1 μg) was reverse transcribed with random hexamers (High Capacity cDNA Archive kits; Applied Biosystems). The cDNA was amplified with TaqMan gene expression assays (Applied Biosystems) using a 7900 HT thermocycler (ABI/Prism). For each sample, the expression levels were determined with the comparative threshold cycle (Ct) method, and normalized to the housekeeping genes encoding 18S and glyceraldehyde-3-phosphate dehydrogenase (GAPDH). For amplification, the following probes (Applied Biosystems) that have been validated to recognize the mouse transcripts in rtPCR were used: Axin2, Nkd1, Lef1, ccnd1, cMyc-Klf4, Ly6a, S100a4, Id1, Cdh2, Acta2, CD44. The probes to identify the CCM3 mRNA transcript were custom designed, as: forward, […] (SEQ ID No. 12); reverse, GCTCTGGCCGCTCAATCA (SEQ ID No. 13); reporter sequence, […] (SEQ ID No. 14).

platelets = conditions: cited from earlier work
[4] = tested on: CCM3-knockout endothelial cell line; experiment: Immunostaining of CCM3-knockout endothelial cell line; format: cell-based, mouse; conditions: 48 h
Procedure: as §5, §6
Cells cultured in vitro were fixed and stained as described previously^46.
as §4

[5] = tested on: CCM1 KO endothelial cells; experiment: Endothelial cell-to-cell contacts in CCM1 KO endothelial cells in culture; format: cell-based, mouse
[6] = tested on: CCM1 KO endothelial cells; experiment: Expression of EndMT markers in CCM1 KO endothelial cells in culture; format: cell-based, mouse
Procedure: as §1, §7

CCM3-ECKO mice = experiment: Bleeding and mortality in drug-treated CCM3-ECKO mice; conditions: mouse, in vivo
Procedure: Sulindac sulfide (Sigma) and sulindac sulfone (Sigma) were both dissolved in DMSO and further diluted 1:50 in corn oil. They were administered intragastrically, daily (30 mg/kg body weight), starting one day after the induction of recombination. The control mice were treated in parallel with vehicle only (corn oil plus 2% DMSO).

[7] = tested on: vascular lesions in the brain of CCM3-ECKO mice; experiment: Assessment of lesion burden in brains of CCM3-ECKO mice; format: in vivo, mouse; conditions: CCM3-ECKO pups dpn 9; 30 mg/kg intragastrically daily; controls 166.8±22 (sulfide study), 153.5±28 (sulfone study)
Source text: as §2, §3
For the classification and counting of lesions, entire brains from dpn 9 littermate pups were sectioned and immunostained for Pecam as described above and in the Methods. Sections were then examined under wide-field fluorescence microscopy (10× and 20×). Lesions were classified as described in^63 as mulberry (multiple cavernae, group of more than two contiguous cavernae), single caverna (single dilated vessel with maximal diameter accommodating more than 25 red blood cells), or telangiectases, tortuous small vessels with abnormally dilated lumen). The total numbers of lesions were calculated by summing all of the types of lesions.
As the sections were […], a correction was applied to the number of mulberry lesions, which can span two sections. Therefore, the number of mulberry lesions was divided by […]. The lesions were counted and classified independently by two observers who were blinded to the treatments.
The maximal diameter of the mulberry lesions and single cavernae was used for statistical comparison.

cyclooxygenase = conditions: reported; cited from earlier work

With `CC1=C(CC(=O)O)c2cc(F)ccc2/C1=C\c1ccc(S(C)(=O)=O)cc1` [sulindac sulfone, (Z)-5-Fluoro-2-methyl-1-[4-(methylsulfonyl)benzylidene]indene-3-acetic acid] the “formation of cavernoma lesions in the brain” value [1] was “inhibits”, the “VE-cadherin localization at endothelial cell-cell junctions in brain vessels” value [2] was “restored its localization to cell-cell junctions” and the “expression of b-catenin target genes / progenitor and EndMT markers (Klf4, S100a4, Id1) in brain endothelium” value ([2]; immunostaining) was “reduced this nuclear reactivity; also recorded: inhibited”. The “inhibition of transcription of Axin2, Klf4 and S100a4 (rtPCR)” value [3] was “greatest inhibition; also recorded: most effective”, the anti-platelet activity (platelets) was “lacks anti-platelet activity” and the “nuclear accumulation of active b-catenin / distribution to adherens junctions” value [4] was “inhibited; also recorded: reduced”. The “overexpression of progenitor/EndMT marker proteins (Klf4, S100a4, Id1, CD44)” value [4] was “strongly reduced; also recorded: inhibited”, the “organization of endothelial cell-to-cell contacts” value [5] was “induces re-organization” and the “expression of EndMT markers” value [6] was “inhibits”. For the same compound, the “expression of EndMT markers” value ([6]; listed as exisulind) was “inhibition”, the “bleeding from vascular lesions or mortality versus vehicle-treated mice” value (CCM3-ECKO mice) was “did not observe either increased bleeding from vascular lesions or mortality” and the “mean number (±SD) of vascular lesions per brain” value [7] was 68.6±10. For the same compound, the anti-cyclooxygenase activity (cyclooxygenase) was “devoid of anti-cyclooxygenase activity”.
